Laboratory results from US20260078103A1, “ISOQUINOLONES AS PI3K INHIBITORS” (OnKure, Inc., priority 2022, published 2026).
Read-outs that look alike come from different tables or passages of the source.

How the values were obtained:
Assay type in all cases: cell-based
[1] = tested on: T47D cells expressing mutant PI3Ka (H1047R); assay: In vitro cell proliferation, T47D cells (CellTiter-Glo); conditions: inhibition of proliferation, read-out: Avg T-47D EC50
Summary of the method: (§1)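 Proliferation was read by CellTiter-Glo luminescence after 72 h of exposure to 10-point compound dilutions at 37 °C and 5% CO2. T47D (RPMI, 10% FBS, insulin 0.2 units/mL) and SKBR3 (McCoys 5a, 10% FBS) cells were seeded at 1,500 cells/well. EC50 was fitted from inhibition relative to DMSO and 10 uM Alpelisib.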

[2] = tested on: phosphorylation of AKT (pAKT) in T47D cells expressing mutant PI3Ka (H1047R); assay: In vitro cell pAKT (Ser473) HTRF, T47D cells; conditions: cellular pAKT, T47D cells, mutant PI3Ka (H1047R), 6 hours, read-out: Avg T-47D IC50
Summary of the method: (§2)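 Cells seeded on plates pre-stamped with 10-point compound dilutions, then grown 6 h at 37 °C (T47D in RPMI/10% FBS/insulin; SKBR3 in McCoy's 5a/10% FBS). Lysates read for pAKT Ser473 by HTRF after overnight antibody incubation. Inhibition normalised to 0.1% DMSO and 10 uM alpelisib; IC50 by four-parameter fit.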

[3] = tested on: SKBR3 cells express WT PI3Ka; assay: In vitro cell proliferation, SKBR3 cells (CellTiter-Glo); conditions: inhibition of proliferation
Summary of the method: as §1

[4] = tested on: phosphorylation of AKT (pAKT) in SKBR3 cells express WT PI3Ka; assay: In vitro cell pAKT (Ser473) HTRF, SKBR3 cells; conditions: cellular pAKT
Summary of the method: as §2

SMILES | EC50 ([1]; 72 hours) [nM] | IC50 [2] [nM] | EC50 ([3]; 72 hours) [nM] | IC50 ([4]; 6 hours) [nM] | EC50 ([1]; Homo sapiens, T47D, 72 h) [nM] | IC50 ([2]; Homo sapiens, T47D, 6 h) [nM] | EC50 ([3]; Homo sapiens, SK-BR-3, 72 h) [nM] | IC50 ([4]; Homo sapiens, SK-BR-3, 6 h) [nM]
Cc1cc([C@@H](C)Nc2ccccc2C(=O)O)c2cc(-c3cnc(C(C)(F)F)cn3)n(C)c(=O)c2c1 [Example 395] | 1 to 500 | 1 to 500 | > 15000 | > 15000 | – | – | – | –
Cc1cc([C@@H](C)Nc2ccccc2C(=O)O)c2cc(-c3ccc(C(F)(F)F)cn3)n(C)c(=O)c2c1 [Example 396] | – | – | – | – | 1 to 500 | 1 to 500 | > 15000 | > 15000
Cc1ncncc1N1CCN(c2cc3c([C@@H](C)Nc4cccc(F)c4C(=O)O)cc(F)cc3c(=O)n2C)CC1 [Example 397] | 1 to 500 | 500 to 2000 | > 15000 | > 15000 | – | – | – | –
C[C@@H](Nc1cccc(F)c1C(=O)O)c1cc(F)cc2c(=O)n(C)c(N3C4CCC3CN(CC(F)(F)F)C4)cc12 [Example 398] | – | – | – | – | 1 to 500 | 1 to 500 | > 15000 | 2000 to 15000
Cc1cc([C@@H](C)Nc2ccccc2C(=O)O)c2cc(Cl)n(C)c(=O)c2c1 [Example 400] | – | – | – | – | 500 to 2000 | 500 to 2000 | > 15000 | > 15000
Cc1ncc(-c2ncc(-c3cc4c([C@@H](C)Nc5cccc(F)c5C(=O)O)cc(F)cc4c(=O)n3C)cc2F)cc1F [Example 403] | – | – | – | – | 1 to 500 | 1 to 500 | > 15000 | > 15000
C[C@@H](Nc1cccc(F)c1C(=O)O)c1cc(F)cc2c(=O)n(C)c(-c3cnc(-c4cncc(F)c4)c(F)c3)cc12 [Example 404] | – | – | – | – | 1 to 500 | 1 to 500 | > 15000 | > 15000
Cc1cc([C@@H](C)Nc2ccccc2C(=O)O)c2cc(N3CC(CC(F)(F)F)C3)n(C)c(=O)c2c1 [Example 405] | – | – | – | – | 500 to 2000 | 1 to 500 | > 15000 | > 15000
CC(Nc1cccc(F)c1C(=O)O)c1cc(F)cc2c(=O)n(C)c(-c3ccc(OC4CC(F)C4)nc3)cc12 (centres unmarked) [Example 407] | 1 to 500 | 1 to 500 | > 15000 | > 15000 | – | – | – | –
Cc1ccc(C2CN(c3cc4c([C@@H](C)Nc5cccc(F)c5C(=O)O)cc(F)cc4c(=O)n3C)C2)cn1 [Example 409] | 500 to 2000 | 500 to 2000 | > 15000 | > 15000 | – | – | – | –
Cc1cc([C@@H](C)Nc2cccc(F)c2C(=O)O)c2cc(N3CCN(C)[C@@H](C(F)(F)F)C3)n(C)c(=O)c2c1 [Example 410] | – | – | – | – | 1 to 500 | 1 to 500 | > 15000 | > 15000
Cc1cc([C@@H](C)Nc2cccc(F)c2C(=O)O)c2cc(N3CCN(C)[C@H](C(F)(F)F)C3)n(C)c(=O)c2c1 [Example 411] | – | – | – | – | 1 to 500 | 1 to 500 | > 15000 | > 15000
C[C@@H](Nc1cccc(F)c1C(=O)O)c1cc(F)cc2c(=O)n(C)c(N3CC(F)(F)C3)cc12 [Example 412] | – | – | – | – | 2000 to 15000 | 500 to 2000 | > 15000 | > 15000
C[C@@H](Nc1cccc(F)c1C(=O)O)c1cc(F)cc2c(=O)n(C)c(N3CC(C(F)(F)F)C3)cc12 [Example 413] | 2000 to 15000 | 2000 to 15000 | > 15000 | > 15000 | – | – | – | –
C[C@@H](Nc1cccc(F)c1C(=O)O)c1cc(F)cc2c(=O)n(C)c(N3CCC(F)(F)C3)cc12 [Example 414] | 1 to 500 | 1 to 500 | > 15000 | > 15000 | – | – | – | –
C[C@@H](Nc1cccc(F)c1C(=O)O)c1cc(F)cc2c(=O)n(C)c(N3CC[C@@H](C(F)(F)F)C3)cc12 [Example 415] | – | – | – | – | 500 to 2000 | 1 to 500 | > 15000 | > 15000

SMILES | EC50 ([1]; 72 hours) [nM] | IC50 [2] [nM] | EC50 ([3]; 72 hours) [nM] | IC50 ([4]; 6 hours) [nM] | EC50 ([1]; Homo sapiens, T47D, 72 h) [nM] | IC50 ([2]; Homo sapiens, T47D, 6 h) [nM] | EC50 ([3]; Homo sapiens, SK-BR-3, 72 h) [nM] | IC50 ([4]; Homo sapiens, SK-BR-3, 6 h) [nM]
C[C@@H](Nc1cccc(F)c1C(=O)O)c1cc(F)cc2c(=O)n(C)c(N3CC[C@H](C(F)(F)F)C3)cc12 [Example 416] | – | – | – | – | 500 to 2000 | 500 to 2000 | > 15000 | > 15000
Cc1cnc(N2CCN(c3cc4c([C@@H](C)Nc5cccc(F)c5C(=O)O)cc(F)cc4c(=O)n3C)CC2)s1 [Example 417] | – | – | – | – | 1 to 500 | 1 to 500 | > 15000 | > 15000
Cc1cc([C@@H](C)Nc2ccccc2C(=O)O)c2cc(N3CCn4c(C)nnc4C3)n(C)c(=O)c2c1 [Example 418] | – | – | – | – | > 15000 | > 15000 | > 15000 | > 15000
Cc1cc([C@@H](C)Nc2ccccc2C(=O)O)c2cc(N3CCn4ncnc4C3)n(C)c(=O)c2c1 [Example 419] | – | – | – | – | 500 to 2000 | 500 to 2000 | > 15000 | > 15000
Cc1cc([C@@H](C)Nc2ccccc2C(=O)O)c2cc(-c3cnc(CC(F)(F)F)cn3)n(C)c(=O)c2c1 [Example 422] | – | – | – | – | 1 to 500 | 1 to 500 | > 15000 | > 15000
C[C@@H](Nc1cccc(F)c1C(=O)O)c1cc(F)cc2c(=O)n(C)c(N3CCN(c4cnn(C(C)(C)C#N)c4)CC3)cc12 [Example 424] | – | – | – | – | 1 to 500 | 1 to 500 | > 15000 | 2000 to 15000
C[C@@H](Nc1cccc(F)c1C(=O)O)c1cc(F)cc2c(=O)n(C)c(N3CCN(c4nccs4)CC3)cc12 [Example 429] | – | – | – | – | 1 to 500 | 1 to 500 | > 15000 | > 15000
Cc1cc([C@@H](C)Nc2ccccc2C(=O)O)c2cc(N3CCn4cc(C(F)(F)F)nc4C3)n(C)c(=O)c2c1 [Example 432] | – | – | – | – | 500 to 2000 | 1 to 500 | > 15000 | > 15000
Cc1cc([C@@H](C)Nc2ccccc2C(=O)O)c2cc(N3CCn4c(cnc4C(F)(F)F)C3)n(C)c(=O)c2c1 [Example 433] | 500 to 2000 | 1 to 500 | > 15000 | > 15000 | – | – | – | –
Cc1cc([C@@H](C)Nc2ccccc2C(=O)O)c2cc(N3CCn4cc(C)nc4C3)n(C)c(=O)c2c1 [Example 434] | – | – | – | – | 1 to 500 | 1 to 500 | > 15000 | > 15000
Cc1cc([C@@H](C)Nc2ccccc2C(=O)O)c2cc(N3CCn4c(nnc4C(F)(F)F)C3)n(C)c(=O)c2c1 [Example 435] | 2000 to 15000 | 2000 to 15000 | > 15000 | > 15000 | – | – | – | –
Cc1cc([C@@H](C)Nc2ccccc2C(=O)O)c2cc(N3CCn4nncc4C3)n(C)c(=O)c2c1 [Example 436] | – | – | – | – | 2000 to 15000 | 2000 to 15000 | > 15000 | > 15000
Cc1cc([C@@H](C)Nc2cccc(F)c2C(=O)O)c2cc(N3CCn4c(cnc4C)C3)n(C)c(=O)c2c1 [Example 438] | > 15000 | > 15000 | > 15000 | > 15000 | – | – | – | –
Cc1cc([C@@H](C)Nc2cccc(F)c2C(=O)O)c2cc(N3CCc4c(cnn4C)C3)n(C)c(=O)c2c1 [Example 439] | 500 to 2000 | 500 to 2000 | > 15000 | > 15000 | – | – | – | –
Cc1ncc(F)cc1-c1ncc(-c2cc3c([C@@H](C)Nc4cccc(F)c4C(=O)O)cc(F)cc3c(=O)n2C)cc1F [Example 440] | – | – | – | – | 1 to 500 | 1 to 500 | > 15000 | 2000 to 15000
C[C@@H](Nc1cccc(F)c1C(=O)O)c1cc(F)cc2c(=O)n(C)c(-c3ccc(OCC(F)(F)F)nc3)cc12 [Example 441] | 500 to 2000 | 1 to 500 | > 15000 | > 15000 | – | – | – | –
